Results on six compounds are retold here after patent US7192924B2, “Corticotropin releasing factor 2 receptor agonists” (priority 2002, dated 2007).

For one test, the target named is T1, CRF2R (Homo sapiens, UniProt Q13324).
T1 sequence (Q13324 1-411): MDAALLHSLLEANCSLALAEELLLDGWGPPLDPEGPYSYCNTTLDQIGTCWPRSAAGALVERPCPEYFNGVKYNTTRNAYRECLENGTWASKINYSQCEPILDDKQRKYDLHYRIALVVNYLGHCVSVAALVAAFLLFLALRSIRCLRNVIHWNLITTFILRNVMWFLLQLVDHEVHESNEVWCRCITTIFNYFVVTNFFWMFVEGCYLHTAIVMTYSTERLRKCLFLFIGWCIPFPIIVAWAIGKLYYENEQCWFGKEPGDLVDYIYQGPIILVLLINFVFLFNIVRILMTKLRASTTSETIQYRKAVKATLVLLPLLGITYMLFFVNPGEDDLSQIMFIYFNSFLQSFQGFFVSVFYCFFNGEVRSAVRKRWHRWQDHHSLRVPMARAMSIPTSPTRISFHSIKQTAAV
Kind of test: CRF2R agonist activity (EC50, Emax), called comparative CRF binding. The format is cell-based. Particulars: read-out: CRF2R EC50. The essentials:
(§1)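 Single-subtype CRFR cells, peptide vs vehicle, cAMP via CRE-reporter or lysate assay; background from other CRFR type subtracted if present.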

A further test has as its target T2, CRF1R (Homo sapiens, UniProt P34998).
T2 sequence (P34998 24-415): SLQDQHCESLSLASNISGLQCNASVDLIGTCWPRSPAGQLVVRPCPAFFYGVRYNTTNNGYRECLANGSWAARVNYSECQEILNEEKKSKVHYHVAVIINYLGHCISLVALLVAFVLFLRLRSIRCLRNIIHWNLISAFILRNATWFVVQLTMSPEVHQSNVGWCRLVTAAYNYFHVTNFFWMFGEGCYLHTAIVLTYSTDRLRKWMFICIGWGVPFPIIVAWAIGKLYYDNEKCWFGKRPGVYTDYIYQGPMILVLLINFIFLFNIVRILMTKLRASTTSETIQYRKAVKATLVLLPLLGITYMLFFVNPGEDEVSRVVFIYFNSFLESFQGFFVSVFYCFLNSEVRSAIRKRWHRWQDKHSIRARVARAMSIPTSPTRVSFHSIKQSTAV
Kind of test: CRF1R agonist activity (EC50, Emax), called comparative CRF binding. The format is cell-based. The following applies: read-out: CRF1R EC50. The essentials:
as §1

Peptide text beside a SMILES is read from it.

Regarding `CC[C@H](C)[C@H](N)C(=O)N[C@H](C(=O)N[C@@H](CC(C)C)C(=O)N[C@@H](CO)C(=O)N[C@@H](CC(C)C)C(=O)N[C@@H](CC(=O)O)C(=O)N[C@H](C(=O)N[C@H](C(=O)N[C@H](C(=O)NCC(=O)N[C@@H](CC(C)C)C(=O)N[C@@H](CC(C)C)C(=O)N[C@@H](CCC(N)=O)C(=O)N[C@H](C(=O)N[C@@H](CC(C)C)C(=O)N[C@@H](CC(C)C)C(=O)N[C@@H](CCC(=O)O)C(=O)N[C@@H](CCC(N)=O)C(=O)N[C@@H](C)C(=O)N[C@@H](CCCNC(=N)N)C(=O)N[C@@H](C)C(=O)N[C@@H](CCCNC(=N)N)C(=O)N[C@@H](C)C(=O)N[C@@H](C)C(=O)N[C@@H](CCCNC(=N)N)C(=O)N[C@@H](CCC(=O)O)C(=O)N[C@@H](CCC(N)=O)C(=O)N[C@@H](C)C(=O)N[C@H](C(=O)N[C@H](C(=O)N[C@@H](CC(N)=O)C(=O)N[C@@H](C)C(=O)N[C@@H](CCCNC(=N)N)C(=O)N[C@H](C(=O)N[C@@H](CC(C)C)C(=O)N[C@@H](C)C(=O)N[C@@H](CCCNC(=N)N)C(=O)N[C@H](C(N)=O)C(C)C)[C@@H](C)CC)[C@@H](C)O)[C@@H](C)O)[C@@H](C)CC)[C@@H](C)CC)C(C)C)C(C)C)C(C)C` [compound 214] (H-IVLSLDVVIGLLQILLEQARARAAREQATTNARILARV-NH2; N-terminus assumed), the values for the EC50 at CRF2R and on CRF1R were 74.3 nM and no less than 100 nM, respectively.

As for `CC[C@H](C)[C@H](NC(=O)[C@H](C)NC(=O)[C@H](CC(N)=O)NC(=O)[C@H](CCC(N)=O)NC(=O)[C@H](CCC(=O)O)NC(=O)[C@H](C)NC(=O)[C@H](CCCNC(=N)N)NC(=O)[C@H](CCC(=O)O)NC(=O)[C@H](CCCNC(=N)N)NC(=O)[C@H](CCC(N)=O)NC(=O)[C@H](CO)NC(=O)[C@H](CCC(N)=O)NC(=O)[C@@H](NC(=O)[C@H](CCCNC(=N)N)NC(=O)[C@H](C)NC(=O)[C@H](CC(C)C)NC(=O)[C@H](CCC(=O)O)NC(=O)[C@H](CC(C)C)NC(=O)[C@H](CC(C)C)NC(=O)[C@@H](NC(=O)[C@H](CCCNC(=N)N)NC(=O)[C@H](CC(C)C)NC(=O)[C@H](CC(C)C)NC(=O)[C@H](Cc1ccc(O)cc1)NC(=O)[C@H](Cc1ccc(O)cc1)NC(=O)[C@@H]1CCCN1C(=O)[C@H](CC(C)C)NC(=O)[C@H](CC(=O)O)NC(=O)[C@@H](NC(=O)[C@H](CO)NC(=O)[C@H](CC(C)C)NC(=O)[C@H](CO)NC(=O)[C@@H]1CCCN1C(=O)[C@H](CC(N)=O)NC(=O)[C@@H](N)CC(=O)O)[C@@H](C)CC)[C@@H](C)O)[C@@H](C)O)C(=O)N[C@H](C(=O)N[C@@H](Cc1ccccc1)C(=O)N[C@@H](C)C(=O)N[C@@H](CO)C(=O)N[C@H](C(N)=O)C(C)C)[C@@H](C)CC` [compound 263] (H-DNPSLSIDLPYYLLRTLLELARTQSQRERAEQNAIIFASV-NH2; N-terminus assumed), the concentration giving a half-maximal response (EC50) at CRF2R turned out to be 36.2 nM; on CRF1R it was 802 nM.

With `CC[C@H](C)[C@H](N)C(=O)N[C@H](C(=O)N[C@@H](CC(C)C)C(=O)N[C@@H](CO)C(=O)N[C@@H](CC(C)C)C(=O)N[C@@H](CC(=O)O)C(=O)N[C@H](C(=O)N1CCC[C@H]1C(=O)N[C@H](C(=O)NCC(=O)N[C@@H](CC(C)C)C(=O)N[C@@H](CC(C)C)C(=O)N[C@@H](CCC(N)=O)C(=O)N[C@@H](CCCCN)C(=O)N[C@H](C(=O)N[C@H](C(=O)N[C@@H](CCC(=O)O)C(=O)N[C@H](C(=O)N[C@@H](CCC(=O)O)C(=O)N[C@@H](CCCCN)C(=O)N[C@@H](CCC(N)=O)C(=O)N[C@@H](CCC(=O)O)C(=O)N[C@@H](CCCCN)C(=O)N[C@@H](CCC(=O)O)C(=O)N[C@@H](CCCCN)C(=O)N[C@@H](CCC(N)=O)C(=O)N[C@@H](CCC(N)=O)C(=O)N[C@@H](C)C(=O)N[C@H](C(=O)N[C@H](C(=O)N[C@@H](CC(N)=O)C(=O)N[C@@H](C)C(=O)N[C@@H](CCCNC(=N)N)C(=O)N[C@H](C(=O)N[C@@H](CC(C)C)C(=O)N[C@@H](C)C(=O)N[C@@H](CCCNC(=N)N)C(=O)N[C@H](C(N)=O)C(C)C)[C@@H](C)CC)[C@@H](C)O)[C@@H](C)O)[C@@H](C)CC)[C@@H](C)CC)C(C)C)[C@@H](C)CC)C(C)C)C(C)C` [compound 300] (H-IVLSLDVPIGLLQKVIEIEKQEKEKQQATTNARILARV-NH2; N-terminus assumed), the EC50 on CRF2R was 17.1 nM; at CRF1R it was no less than 1000 nM.

Regarding `CC[C@H](C)[C@H](NC(=O)[C@H](CCC(=O)O)NC(=O)[C@H](C)NC(=O)[C@H](CC(N)=O)NC(=O)[C@H](CCC(N)=O)NC(=O)[C@H](CCC(=O)O)NC(=O)[C@H](C)NC(=O)[C@H](CCCNC(=N)N)NC(=O)[C@H](CCC(=O)O)NC(=O)[C@H](CCCNC(=N)N)NC(=O)[C@H](CCC(N)=O)NC(=O)[C@H](CO)NC(=O)[C@H](CCC(N)=O)NC(=O)[C@@H](NC(=O)[C@H](CCCCN)NC(=O)[C@H](CCC(=O)O)NC(=O)[C@H](CC(C)C)NC(=O)[C@H](CCC(=O)O)NC(=O)[C@H](CC(C)C)NC(=O)[C@H](CC(C)C)NC(=O)[C@@H](NC(=O)[C@H](CCCNC(=N)N)NC(=O)[C@H](CC(C)C)NC(=O)[C@H](CC(C)C)NC(=O)[C@H](CC(C)C)NC(=O)[C@H](CC(C)C)NC(=O)[C@@H]1CCCN1C(=O)[C@H](CC(C)C)NC(=O)[C@H](CC(=O)O)NC(=O)[C@@H](NC(=O)[C@H](CO)NC(=O)[C@H](CC(C)C)NC(=O)[C@H](CO)NC(=O)[C@@H]1CCCN1C(=O)[C@H](CC(N)=O)NC(=O)[C@@H](N)CC(=O)O)[C@@H](C)CC)[C@@H](C)O)[C@@H](C)O)C(=O)N[C@@H](Cc1ccccc1)C(=O)N[C@@H](C)C(=O)N[C@@H](CCC(=O)O)C(=O)N[C@H](C(N)=O)C(C)C` [compound 323] (H-DNPSLSIDLPLLLLRTLLELEKTQSQRERAEQNAEIFAEV-NH2; N-terminus assumed), the results for the half-maximal effective concentration (EC50) on CRF2R and on CRF1R were 19.6 nM and no less than 1000 nM, respectively.

Consider `CC[C@H](C)[C@H](NC(=O)[C@H](CCC(N)=O)NC(=O)[C@H](C)NC(=O)[C@H](CC(N)=O)NC(=O)[C@H](CCC(N)=O)NC(=O)[C@H](CCC(=O)O)NC(=O)[C@H](C)NC(=O)[C@H](CCCNC(=N)N)NC(=O)[C@H](CCC(=O)O)NC(=O)[C@H](CCCNC(=N)N)NC(=O)[C@H](CCC(N)=O)NC(=O)[C@H](CO)NC(=O)[C@H](CCC(N)=O)NC(=O)[C@@H](NC(=O)[C@H](CCCCN)NC(=O)[C@H](CCC(=O)O)NC(=O)[C@H](CC(C)C)NC(=O)[C@H](CCC(=O)O)NC(=O)[C@H](CC(C)C)NC(=O)[C@H](CC(C)C)NC(=O)[C@@H](NC(=O)[C@H](CCCNC(=N)N)NC(=O)[C@H](CC(C)C)NC(=O)[C@H](CC(C)C)NC(=O)[C@H](CC(C)C)NC(=O)[C@H](CC(C)C)NC(=O)[C@@H]1CCCN1C(=O)[C@H](CC(C)C)NC(=O)[C@H](CC(=O)O)NC(=O)[C@@H](NC(=O)[C@H](CO)NC(=O)[C@H](CC(C)C)NC(=O)[C@H](CO)NC(=O)[C@@H]1CCCN1C(=O)[C@H](CC(N)=O)NC(=O)[C@@H](N)CC(=O)O)[C@@H](C)CC)[C@@H](C)O)[C@@H](C)O)C(=O)N[C@@H](Cc1ccccc1)C(=O)N[C@@H](C)C(=O)N[C@@H](CCC(N)=O)C(=O)N[C@H](C(N)=O)C(C)C` [compound 327] (H-DNPSLSIDLPLLLLRTLLELEKTQSQRERAEQNAQIFAQV-NH2; N-terminus assumed), for which the half-maximal effective concentration (EC50) was 28.4 nM on CRF2R and no less than 1000 nM on CRF1R.

`CC[C@H](C)[C@H](NC(=O)[C@H](CCCNC(=N)N)NC(=O)[C@H](C)NC(=O)[C@H](CC(N)=O)NC(=O)[C@H](CCC(N)=O)NC(=O)[C@H](CCC(=O)O)NC(=O)[C@H](C)NC(=O)[C@H](CCCNC(=N)N)NC(=O)[C@H](CCC(=O)O)NC(=O)[C@H](CCCNC(=N)N)NC(=O)[C@H](CCC(N)=O)NC(=O)[C@H](CO)NC(=O)[C@H](CCC(N)=O)NC(=O)[C@@H](NC(=O)[C@H](CCCNC(=N)N)NC(=O)[C@H](C)NC(=O)[C@H](CC(C)C)NC(=O)[C@H](CCC(=O)O)NC(=O)[C@H](CC(C)C)NC(=O)[C@H](CC(C)C)NC(=O)[C@@H](NC(=O)[C@H](CCCNC(=N)N)NC(=O)[C@H](CC(C)C)NC(=O)[C@H](CC(C)C)NC(=O)[C@H](Cc1ccccc1)NC(=O)[C@H](CC(C)C)NC(=O)[C@@H]1CCCN1C(=O)[C@H](CC(C)C)NC(=O)[C@H](CC(=O)O)NC(=O)[C@@H](NC(=O)[C@H](CO)NC(=O)[C@H](CC(C)C)NC(=O)[C@H](CO)NC(=O)[C@@H]1CCCN1C(=O)[C@H](CC(N)=O)NC(=O)[C@@H](N)CC(=O)O)[C@@H](C)CC)[C@@H](C)O)[C@@H](C)O)C(=O)N[C@@H](Cc1ccccc1)C(=O)N[C@@H](C)C(=O)N[C@@H](CCCNC(=N)N)C(=O)N[C@H](C(N)=O)C(C)C` [compound 329] (H-DNPSLSIDLPLFLLRTLLELARTQSQRERAEQNARIFARV-NH2; N-terminus assumed): the concentration for a half-maximal effect (EC50) at CRF2R was 5.15 nM; at CRF1R, no less than 1000 nM.

One may read the EC50 as the concentration at which the effect is half-maximal.
